US12258328B2, “6-membered heteroaryl-containing aminopyridine compounds as EGFR inhibitors” (YUHAN CORPORATION, priority 2021, dated 2025)
Where two headings read alike, the source gives them in different places.

Experiments:
EGFR L858R/T790M/C797S = EGFR L858R/T790M/C797S (Homo sapiens, UniProt P00533, C797S/L858R/T790M); experiment: Biochemical EGFR kinase assay (Lance Ultra TR-FRET), triple mutant L858R/T790M/C797S
How it was run: (§1)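 Step 1: compound in kinase buffer, 0.003–10 μM. Step 2: kinase reaction 1 h at room temperature. Step 4: TR-FRET read at 615/665 nm; IC50 calculated.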

EGFR L858R/C797S = EGFR L858R/C797S (Homo sapiens, UniProt P00533, C797S/L858R); experiment: Biochemical EGFR kinase assay (Lance Ultra TR-FRET), double mutant L858R/C797S
How it was run: as §1

EGFR del19/T790M/C797S = EGFR del19/T790M/C797S (Homo sapiens, UniProt P00533, C797S/DEL746-750/T790M); experiment: Biochemical EGFR kinase assay (Lance Ultra TR-FRET), triple mutant del19/T790M/C797S
EGFR del19/T790M/C797S, sequence (P00533 with tags, fused parts or gaps DEL746-750/T790M/C797S): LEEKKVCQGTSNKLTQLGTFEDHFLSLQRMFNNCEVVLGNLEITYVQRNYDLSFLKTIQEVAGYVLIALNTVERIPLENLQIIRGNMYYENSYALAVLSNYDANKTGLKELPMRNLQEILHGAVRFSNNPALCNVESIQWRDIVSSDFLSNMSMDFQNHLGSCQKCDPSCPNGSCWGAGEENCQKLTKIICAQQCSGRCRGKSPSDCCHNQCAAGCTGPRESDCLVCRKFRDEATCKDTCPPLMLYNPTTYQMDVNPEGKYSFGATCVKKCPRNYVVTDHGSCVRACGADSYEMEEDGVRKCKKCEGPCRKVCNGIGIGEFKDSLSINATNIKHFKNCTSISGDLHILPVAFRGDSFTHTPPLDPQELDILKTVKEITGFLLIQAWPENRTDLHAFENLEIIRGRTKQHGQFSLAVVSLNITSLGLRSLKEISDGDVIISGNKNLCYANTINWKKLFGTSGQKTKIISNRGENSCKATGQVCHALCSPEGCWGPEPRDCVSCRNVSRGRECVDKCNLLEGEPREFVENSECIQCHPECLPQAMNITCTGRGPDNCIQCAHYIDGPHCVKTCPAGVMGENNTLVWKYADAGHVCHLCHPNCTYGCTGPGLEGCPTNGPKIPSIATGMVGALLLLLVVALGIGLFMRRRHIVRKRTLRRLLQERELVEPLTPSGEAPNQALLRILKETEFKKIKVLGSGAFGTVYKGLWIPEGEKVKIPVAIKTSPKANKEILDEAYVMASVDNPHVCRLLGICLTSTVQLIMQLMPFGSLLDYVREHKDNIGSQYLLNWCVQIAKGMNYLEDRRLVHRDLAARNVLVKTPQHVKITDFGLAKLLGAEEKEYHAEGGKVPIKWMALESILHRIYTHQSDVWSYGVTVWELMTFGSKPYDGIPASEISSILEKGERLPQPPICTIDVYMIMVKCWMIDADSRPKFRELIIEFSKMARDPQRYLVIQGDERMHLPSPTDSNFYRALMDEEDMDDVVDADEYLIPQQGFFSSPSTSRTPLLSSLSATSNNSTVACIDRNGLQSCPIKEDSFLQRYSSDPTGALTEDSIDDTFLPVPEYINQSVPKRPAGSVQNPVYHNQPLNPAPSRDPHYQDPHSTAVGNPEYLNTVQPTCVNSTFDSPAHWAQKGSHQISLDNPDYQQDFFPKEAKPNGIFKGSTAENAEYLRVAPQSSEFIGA
How it was run: as §1

EGFR wildtype = EGFR wildtype (Homo sapiens, UniProt P00533); experiment: Biochemical EGFR kinase assay (Lance Ultra TR-FRET), wildtype
EGFR wildtype, sequence (P00533 25-1210): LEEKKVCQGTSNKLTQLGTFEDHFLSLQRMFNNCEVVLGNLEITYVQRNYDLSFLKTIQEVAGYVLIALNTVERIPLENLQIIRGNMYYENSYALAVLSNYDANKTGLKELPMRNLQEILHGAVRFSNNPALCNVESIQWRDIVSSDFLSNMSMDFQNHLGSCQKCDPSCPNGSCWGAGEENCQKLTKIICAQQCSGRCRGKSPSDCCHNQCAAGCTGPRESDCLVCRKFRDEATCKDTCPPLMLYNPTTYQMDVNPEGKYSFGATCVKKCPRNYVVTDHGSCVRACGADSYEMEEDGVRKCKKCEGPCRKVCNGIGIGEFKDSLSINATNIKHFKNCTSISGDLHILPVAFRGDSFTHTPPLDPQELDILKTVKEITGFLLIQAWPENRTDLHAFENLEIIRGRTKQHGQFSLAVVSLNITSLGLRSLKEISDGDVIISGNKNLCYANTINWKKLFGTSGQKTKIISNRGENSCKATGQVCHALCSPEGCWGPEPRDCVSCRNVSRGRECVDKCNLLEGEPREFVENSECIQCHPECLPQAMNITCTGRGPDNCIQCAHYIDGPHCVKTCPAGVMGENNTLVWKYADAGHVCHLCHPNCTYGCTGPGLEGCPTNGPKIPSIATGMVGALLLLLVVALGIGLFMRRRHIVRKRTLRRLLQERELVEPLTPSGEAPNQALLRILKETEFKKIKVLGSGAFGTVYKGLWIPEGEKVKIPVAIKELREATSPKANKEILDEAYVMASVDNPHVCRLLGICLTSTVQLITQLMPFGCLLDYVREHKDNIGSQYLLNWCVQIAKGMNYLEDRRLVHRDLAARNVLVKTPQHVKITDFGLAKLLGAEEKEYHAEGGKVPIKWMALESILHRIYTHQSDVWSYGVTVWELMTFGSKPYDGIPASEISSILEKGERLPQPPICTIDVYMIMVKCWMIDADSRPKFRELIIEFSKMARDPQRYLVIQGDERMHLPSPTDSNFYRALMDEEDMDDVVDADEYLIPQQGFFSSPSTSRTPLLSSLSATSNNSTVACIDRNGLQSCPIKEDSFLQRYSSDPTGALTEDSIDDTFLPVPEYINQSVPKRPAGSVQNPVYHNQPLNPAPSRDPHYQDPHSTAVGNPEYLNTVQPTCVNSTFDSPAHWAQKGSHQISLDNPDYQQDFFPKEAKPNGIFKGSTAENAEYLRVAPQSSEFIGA
How it was run: as §1

EGFR del19/C797S = EGFR del19/C797S (Homo sapiens, UniProt P00533, C797S/DEL746-750); experiment: Biochemical EGFR kinase assay (Lance Ultra TR-FRET), double mutant del19/C797S
EGFR del19/C797S, sequence (P00533 with tags, fused parts or gaps DEL746-750/C797S): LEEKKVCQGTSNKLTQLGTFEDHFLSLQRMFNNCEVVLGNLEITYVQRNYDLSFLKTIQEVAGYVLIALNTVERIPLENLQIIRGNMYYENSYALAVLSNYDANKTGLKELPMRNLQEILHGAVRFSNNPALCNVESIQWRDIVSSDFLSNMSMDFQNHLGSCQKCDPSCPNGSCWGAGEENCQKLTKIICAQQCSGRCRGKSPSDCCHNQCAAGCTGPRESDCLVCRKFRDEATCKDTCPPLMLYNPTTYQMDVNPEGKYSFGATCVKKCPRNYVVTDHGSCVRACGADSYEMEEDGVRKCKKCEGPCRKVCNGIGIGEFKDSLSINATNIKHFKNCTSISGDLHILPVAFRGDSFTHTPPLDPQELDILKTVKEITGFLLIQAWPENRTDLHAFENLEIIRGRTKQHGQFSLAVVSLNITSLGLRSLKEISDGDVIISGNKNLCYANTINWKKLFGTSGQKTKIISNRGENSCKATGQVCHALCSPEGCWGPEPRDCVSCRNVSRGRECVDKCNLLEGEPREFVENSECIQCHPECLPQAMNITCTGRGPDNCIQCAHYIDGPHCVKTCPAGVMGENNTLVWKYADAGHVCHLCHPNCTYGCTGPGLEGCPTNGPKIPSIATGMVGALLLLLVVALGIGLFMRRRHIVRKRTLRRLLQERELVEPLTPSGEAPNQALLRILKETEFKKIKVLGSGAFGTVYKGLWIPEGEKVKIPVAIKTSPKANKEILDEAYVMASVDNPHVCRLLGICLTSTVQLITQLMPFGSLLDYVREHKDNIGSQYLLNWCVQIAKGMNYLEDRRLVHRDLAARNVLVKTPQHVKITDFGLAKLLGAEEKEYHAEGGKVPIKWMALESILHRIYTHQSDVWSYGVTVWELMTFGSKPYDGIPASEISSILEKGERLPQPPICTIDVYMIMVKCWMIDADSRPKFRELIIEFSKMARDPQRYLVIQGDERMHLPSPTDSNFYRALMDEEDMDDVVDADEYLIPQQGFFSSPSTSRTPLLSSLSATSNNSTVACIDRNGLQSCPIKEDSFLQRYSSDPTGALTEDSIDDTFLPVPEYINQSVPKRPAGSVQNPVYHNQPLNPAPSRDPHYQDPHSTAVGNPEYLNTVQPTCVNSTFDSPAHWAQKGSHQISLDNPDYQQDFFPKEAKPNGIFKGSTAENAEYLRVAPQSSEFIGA
How it was run: as §1

[1] = IC50 L858R/T790M/C797S (nM) 100 μM ATP, 100 μM ATP
[2] = Km ATP, read-out: IC50 L858R/T790M/C797S (nM) Km ATP
[3] = IC50 L858R/C797S (nM) 100 μM ATP, 100 μM ATP
[4] = Km ATP, read-out: IC50 L858R/C797S (nM) Km ATP
[5] = IC50 del19/T790M/C797S (nM) 100 μM ATP, 100 μM ATP
[6] = Km ATP, read-out: IC50 del19/T790M/C797S (nM) Km ATP
[7] = IC50 WT (nM) 100 μM ATP, 100 μM ATP
[8] = Km ATP, read-out: IC50 WT (nM) Km ATP
[9] = IC50 del19/C797S (nM) 100 μM ATP, 100 μM ATP
[10] = Km ATP, read-out: IC50 del19/C797S (nM) Km ATP
[11] = IC50 L858R/T790M/C797S, 100 μM ATP
[12] = ATP at Km, read-out: IC50 L858R/C797S, Km ATP
[13] = ATP at Km, read-out: IC50 del19/T790M/C797S, Km ATP
[14] = IC50 del19/T790M/C797S, 100 μM ATP
[15] = ATP at Km, read-out: IC50 WT, Km ATP
[16] = ATP at Km, read-out: IC50 del19/C797S, Km ATP
[17] = ATP at Km, read-out: IC50 L858R/T790M/C797S, Km ATP

EGFR L858R/T790M/C797S, sequence (P00533 25-1210 T790M/C797S/L858R): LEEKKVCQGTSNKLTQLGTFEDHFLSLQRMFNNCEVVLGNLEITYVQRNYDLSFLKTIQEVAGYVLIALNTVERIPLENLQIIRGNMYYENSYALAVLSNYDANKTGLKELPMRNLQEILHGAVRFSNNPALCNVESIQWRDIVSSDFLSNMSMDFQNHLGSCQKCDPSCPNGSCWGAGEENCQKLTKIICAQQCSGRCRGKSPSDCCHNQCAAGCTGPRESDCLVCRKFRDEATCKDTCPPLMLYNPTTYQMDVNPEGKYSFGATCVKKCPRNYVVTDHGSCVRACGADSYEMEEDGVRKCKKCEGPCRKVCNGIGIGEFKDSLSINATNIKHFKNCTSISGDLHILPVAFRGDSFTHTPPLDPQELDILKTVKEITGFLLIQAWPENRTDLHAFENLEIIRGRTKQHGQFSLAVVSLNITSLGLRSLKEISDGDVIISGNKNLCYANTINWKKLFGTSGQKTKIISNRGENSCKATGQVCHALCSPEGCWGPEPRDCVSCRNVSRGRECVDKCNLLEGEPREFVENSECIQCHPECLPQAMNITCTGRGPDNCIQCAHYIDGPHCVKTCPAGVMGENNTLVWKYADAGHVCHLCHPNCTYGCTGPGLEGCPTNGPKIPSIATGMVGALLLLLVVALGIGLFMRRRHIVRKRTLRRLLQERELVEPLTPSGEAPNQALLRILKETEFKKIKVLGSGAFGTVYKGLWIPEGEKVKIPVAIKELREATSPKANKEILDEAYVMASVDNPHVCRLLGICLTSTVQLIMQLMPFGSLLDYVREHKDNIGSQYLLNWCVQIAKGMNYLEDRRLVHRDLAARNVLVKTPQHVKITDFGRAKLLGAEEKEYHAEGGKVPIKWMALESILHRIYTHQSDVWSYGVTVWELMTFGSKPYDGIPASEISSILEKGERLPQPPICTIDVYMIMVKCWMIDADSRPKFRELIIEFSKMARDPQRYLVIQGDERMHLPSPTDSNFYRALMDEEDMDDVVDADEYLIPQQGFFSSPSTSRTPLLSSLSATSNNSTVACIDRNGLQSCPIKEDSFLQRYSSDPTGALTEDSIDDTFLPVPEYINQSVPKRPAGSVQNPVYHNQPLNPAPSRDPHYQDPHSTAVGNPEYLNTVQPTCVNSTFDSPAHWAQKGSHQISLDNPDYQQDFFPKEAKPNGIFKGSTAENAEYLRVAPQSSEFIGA

Row | SMILES | IC50 (EGFR L858R/T790M/C797S; [1]) [nM] | IC50 (EGFR L858R/T790M/C797S; [2]) [nM] | IC50 (EGFR L858R/C797S; [3]) [nM] | IC50 (EGFR L858R/C797S; [4]) [nM] | IC50 (EGFR del19/T790M/C797S; [5]) [nM] | IC50 (EGFR del19/T790M/C797S; [6]) [nM] | IC50 (EGFR wildtype; [7]) [nM] | IC50 (EGFR wildtype; [8]) [nM] | IC50 (EGFR del19/C797S; [9]) [nM] | IC50 (EGFR del19/C797S; [10]) [nM] | IC50 (EGFR L858R/T790M/C797S; [11]) [nM] | IC50 (EGFR L858R/C797S; [12]) [nM] | IC50 (EGFR L858R/C797S; IC50 L858R/C797S, 100 μM ATP) [nM] | IC50 (EGFR del19/T790M/C797S; [13]) [nM] | IC50 (EGFR del19/T790M/C797S; [14]) [nM] | IC50 (EGFR wildtype; [15]) [nM] | IC50 (EGFR wildtype; IC50 WT, 100 μM ATP) [nM] | IC50 (EGFR del19/C797S; [16]) [nM] | IC50 (EGFR del19/C797S; IC50 del19/C797S, 100 μM ATP) [nM] | IC50 (EGFR L858R/T790M/C797S; [17]) [nM]
1 | O=S(=O)(C1CC1)n1cc(-c2nccc(Nc3cc(N[C@H]4CC[C@@H](CO)CC4)c(-c4ccc(CN5CCC(O)CC5)cn4)cn3)n2)cn1 [Example 99, 1-((6′-((2-(1-(Cyclopropylsulfonyl)-1H-pyrazol-4-yl)pyrimidin-4-yl)amino)-4′-(((1s,4s)-4-(hydroxymethyl)cyclohexyl)amino)-[2,3′-bipyridin]-5-yl)methyl) piperidin-4-ol] | 0.1 | 0.04 | 0.7 | 0.1 | 0.1 | 0.1 | 61.5 | 0.3 | 0.3 | 0.3 | – | – | – | – | – | – | – | – | – | –
2 | CN(C)S(=O)(=O)c1ccc(-c2cnc(Nc3ccnc(-c4cnn(S(=O)(=O)C5CC5)c4)n3)cc2N[C@H]2CC[C@@H](CO)CC2)nc1 [Example 166, 6′-((2-(1-(Cyclopropylsulfonyl)-1H-pyrazol-4-yl)pyrimidin-4-yl)amino)-4′-(((1s,4s)-4-(hydroxymethyl)cyclohexyl)amino)-N,N-dimethyl-[2,3′-bipyridine]-5-sulfonamide] | – | – | – | – | – | – | – | – | – | – | 0.6 | 1.1 | 2.4 | 1.9 | 5.1 | 2 | > 10000 | 1.2 | 2.4 | –
3 | O=S(=O)(C1CC1)n1cc(-c2nccc(Nc3cc(NC4CCC(CO)CC4)c(-c4ccc(C(O)C(F)(F)F)cn4)cn3)n2)cn1 (stereo not shown) [Example 227, 1-(6′-((2-(1-(Cyclopropylsulfonyl)-1H-pyrazol-4-yl)pyrimidin-4-yl)amino)-4′-(((1s,4s)-4-(hydroxymethyl)cyclohexyl)amino)-[2,3′-bipyridin]-5-yl)-2,2,2-trifluoroethan-1-ol] | – | – | – | – | – | – | – | – | – | – | 0.8 | 2.5 | 10 | 0.9 | – | 5.2 | 835 | 1.9 | 7 | 0.4
4 | CC(C)(O)[C@H]1CC[C@@H](Nc2cc(Nc3ccnc(-c4cnn(S(=O)(=O)C5CC5)c4)n3)ncc2-c2cc(N3CCC(F)(F)CC3)ccn2)CC1 [Example 103, 2-((1s,4s)-4-((6′-((2-(1-(Cyclopropylsulfonyl)-1H-pyrazol-4-yl)pyrimidin-4-yl)amino)-4-(4,4-difluoropiperidin-1-yl)-[2,3′-bipyridin]-4′-yl)amino)cyclohexyl)propan-2-ol] | 3.9 | – | 654 | – | 6.6 | – | > 10000 | – | 66.5 | – | – | – | – | – | – | – | – | – | – | –
5 | CN(C)Cc1ccc(-c2cnc(Nc3ccnc(-c4cnn(S(=O)(=O)C5CC5)c4)n3)cc2N[C@H]2CC[C@@](C)(O)CC2)nc1 [Example 31, (1s,4s)-4-((6′-((2-(1-(Cyclopropylsulfonyl)-1H-pyrazol-4-yl)pyrimidin-4-yl)amino)-5-((dimethylamino)methyl)-[2,3′-bipyridin]-4′-yl)amino)-1-methylcyclohexan-1-ol] | 0.1 | 0.1 | 0.8 | 0.1 | 0.2 | 0.2 | 52.6 | 0.3 | 0.1 | 0.1 | – | – | – | – | – | – | – | – | – | –
6 | CC(C)(O)c1ccc(-c2cnc(Nc3ccnc(-c4cnn(S(=O)(=O)C5CC5)c4)n3)cc2N[C@H]2CC[C@@H](CO)CC2)nn1 [Example 87, 2-(6-(6-((2-(1-(Cyclopropylsulfonyl)-1H-pyrazol-4-yl)pyrimidin-4-yl)amino)-4-(((1s,4s)-4-(hydroxymethyl)cyclohexyl)amino)pyridin-3-yl)pyridazin-3-yl)propan-2-ol] | 0.1 | 0.1 | 4.7 | 0.6 | 5.9 | 0.1 | 992 | 2.2 | 0.5 | 0.4 | – | – | – | – | – | – | – | – | – | –
7 | CN1CCN(Cc2cnc(-c3cnc(Nc4ccnc(-c5cnn(S(=O)(=O)C6CC6)c5)n4)cc3N[C@H]3CC[C@@](C)(O)CC3)cn2)CC1 [Example 62, (1s,4s)-4-((2-((2-(1-(Cyclopropylsulfonyl)-1H-pyrazol-4-yl)pyrimidin-4-yl)amino)-5-(5-((4-methylpiperazin-1-yl)methyl)pyrazin-2-yl)pyridin-4-yl)amino)-1-methylcyclohexan-1-ol] | 0.1 | – | 0.9 | – | 0.1 | – | 745 | – | 0.2 | – | – | – | – | – | – | – | – | – | – | –
8 | CN(C)CCOc1ccnc(-c2cnc(Nc3ccnc(-c4cnn(S(=O)(=O)C5CC5)c4)n3)cc2N[C@H]2CC[C@@](C)(O)CC2)c1 [Example 287, (1s,4s)-4-((6′-((2-(1-(Cyclopropylsulfonyl)-1H-pyrazol-4-yl)pyrimidin-4-yl)amino)-4-(2-(dimethylamino)ethoxy)-[2,3′-bipyridin]-4′-yl)amino)-1-methylcyclohexan-1-ol] | – | – | – | – | – | – | – | – | – | – | 0.1 | 0.8 | 44 | 0.2 | 0.3 | 3 | 5140 | 0.4 | 1 | 0.1
9 | CN(C)c1ccnc(-c2cnc(Nc3ccnc(-c4cnn(S(=O)(=O)C5CC5)c4)n3)cc2N[C@H]2CC[C@@](C)(O)CC2)n1 [Example 41, (1s,4s)-4-((2-((2-(1-(Cyclopropylsulfonyl)-1H-pyrazol-4-yl)pyrimidin-4-yl)amino)-5-(4-(dimethylamino)pyrimidin-2-yl)pyridin-4-yl)amino)-1-methylcyclohexan-1-ol] | 0.9 | 0.2 | 523 | 4 | 0.8 | 0.3 | > 10000 | 43.6 | 5.1 | 4.5 | – | – | – | – | – | – | – | – | – | –
10 | COC1CN(c2ccc(-c3cnc(Nc4ccnc(-c5cnn(S(=O)(=O)C6CC6)c5)n4)cc3N[C@H]3CC[C@@](C)(O)CC3)nc2)C1 [Example 90, (1s,4s)-4-((6′-((2-(1-(Cyclopropylsulfonyl)-1H-pyrazol-4-yl)pyrimidin-4-yl)amino)-5-(3-methoxyazetidin-1-yl)-[2,3′-bipyridin]-4′-yl)amino)-1-methylcyclohexan-1-ol] | 0.4 | 0.3 | 15.1 | 0.4 | 0.4 | 0.6 | 406 | 0.4 | 0.9 | 0.4 | – | – | – | – | – | – | – | – | – | –
11 | CN(C)C[C@H]1CC[C@@H](Nc2cc(Nc3ccnc(-c4cnn(S(=O)(=O)C5CC5)c4)n3)ncc2-c2ccc(OC(F)(F)F)cn2)CC1 [Example 197, N^6′-(2-(1-(Cyclopropylsulfonyl)-1H-pyrazol-4-yl)pyrimidin-4-yl)-N^4′-((1s,4s)-4-((dimethylamino)methyl)cyclohexyl)-5-(trifluoromethoxy)-[2,3′-bipyridine]-4′,6′-diamine] | – | – | – | – | – | – | – | – | – | – | 0.5 | 0.3 | 5.3 | 0.6 | 0.5 | 3 | 1240 | 1 | 1.1 | 0.3
12 | CN(C)C[C@H]1CC[C@@H](Nc2cc(Nc3ccnc(-c4cnn(S(=O)(=O)C5CC5)c4)n3)ncc2-c2cc(C(C)(C)O)ccn2)CC1 [Example 110, 2-(6′-((2-(1-(Cyclopropylsulfonyl)-1H-pyrazol-4-yl)pyrimidin-4-yl)amino)-4′-(((1s,4s)-4-((dimethylamino)methyl)cyclohexyl)amino)-[2,3′-bipyridin]-4-yl)propan-2-ol] | 0.1 | 0.1 | 0.5 | 0.04 | 0.2 | 0.1 | 178 | 0.9 | 0.3 | 0.3 | – | – | – | – | – | – | – | – | – | –
13 | CC(F)(F)c1ccc(-c2cnc(Nc3ccnc(-c4cnn(S(=O)(=O)C5CC5)c4)n3)cc2N[C@H]2CC[C@@H](CO)CC2)nc1 [Example 241, ((1s,4s)-4-((6′-((2-(1-(Cyclopropylsulfonyl)-1H-pyrazol-4-yl)pyrimidin-4-yl)amino)-5-(1,1-difluoroethyl)-[2,3′-bipyridin]-4′-yl)amino)cyclohexyl)methanol] | – | – | – | – | – | – | – | – | – | – | 6.9 | 2.9 | 22 | 2.3 | 4.4 | 20.3 | 2640 | 6.3 | 12.9 | 1.8
